Laboratory results reported in patent EP2970215B1, “PYRROLIDINE DERIVATIVES, PHARMACEUTICAL COMPOSITIONS CONTAINING THEM, AND THEIR USE IN THERAPY” (AbbVie Deutschland GmbH & Co. KG, priority 2013, dated 2014).

Target: T1, human GlyT1c transporter (Homo sapiens, UniProt P48067)
T1 construct: expressed in transfected cells; host or cells: CHO cells (recombinant; line hGlyT1c_5_CHO is named for the uptake assay)
T1 sequence (P48067 1-706): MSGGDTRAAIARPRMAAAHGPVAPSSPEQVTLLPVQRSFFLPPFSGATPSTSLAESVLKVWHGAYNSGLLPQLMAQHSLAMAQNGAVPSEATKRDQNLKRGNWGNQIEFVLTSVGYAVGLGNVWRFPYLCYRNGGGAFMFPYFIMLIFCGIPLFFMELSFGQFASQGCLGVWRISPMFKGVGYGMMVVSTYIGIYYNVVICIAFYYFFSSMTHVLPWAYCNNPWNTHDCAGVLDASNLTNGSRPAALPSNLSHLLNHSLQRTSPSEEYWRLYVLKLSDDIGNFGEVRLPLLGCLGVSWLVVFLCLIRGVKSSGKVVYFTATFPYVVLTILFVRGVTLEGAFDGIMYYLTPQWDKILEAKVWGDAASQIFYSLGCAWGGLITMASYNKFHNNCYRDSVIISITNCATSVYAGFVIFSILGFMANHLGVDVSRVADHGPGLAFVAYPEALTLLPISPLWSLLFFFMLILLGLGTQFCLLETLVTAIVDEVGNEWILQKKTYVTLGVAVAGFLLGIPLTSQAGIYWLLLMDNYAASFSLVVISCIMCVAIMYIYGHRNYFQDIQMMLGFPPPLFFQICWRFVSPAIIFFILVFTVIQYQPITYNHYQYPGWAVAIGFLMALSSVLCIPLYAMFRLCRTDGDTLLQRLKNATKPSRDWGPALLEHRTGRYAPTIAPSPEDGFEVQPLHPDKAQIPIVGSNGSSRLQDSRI
Assay: Radioligand binding assay using recombinant CHO cell membranes expressing human GlyT1
Conditions: radioligand binding to human GlyT1c transporter-expressing membranes
Text: 2. Radioligand binding assays using recombinant CHO cell membranes expressing human GlyT1: […]

Row | Structure (SMILES) | Ki
1 | Cn1cnc(S(=O)(=O)N2C[C@@H](Nc3ccc(Cl)cc3)[C@H](c3ccccc3Cl)C2)c1 (relative stereo) [Example 254, trans-4-(2-chlorophenyl)-N-(4-chlorophenyl)-1-[(1-methyl-1H-imidazol-4-yl)sulfonyl]pyrrolidin-3-amine] | ≤ 10 µM
2 | Cn1cnc(S(=O)(=O)N2C[C@@H](NCc3ccc(Cl)cc3)[C@H](c3ccc(F)cc3)C2)c1 (relative stereo) [Example 262, trans-N-(4-chlorobenzyl)-4-(4-fluorophenyl)-1-[(1-methyl-1H-imidazol-4-yl)sulfonyl]pyrrolidin-3-amine] | ≤ 0.01 µM
3 | Cn1cnc(S(=O)(=O)N2C[C@@H](NC(=O)c3cccc(Cl)c3Cl)[C@H](c3ccccc3)C2)c1 (relative stereo) [Example 31, 2,3-dichloro-N-{trans-1-[(1-methyl-1H-imidazol-4-yl)sulfonyl]-4-phenylpyrrolidin-3-yl}benzamide] | ≤ 1 µM
4 | Cc1cc(N[C@H]2CN(S(=O)(=O)c3cn(C)cn3)C[C@@H]2c2ccc(F)cc2)ccc1Cl [Example 743, (3R,4S)-N-(4-chloro-3-methylphenyl)-4-(4-fluorophenyl)-1-[(1-methyl-1H-imidazol-4-yl)sulfonyl]pyrrolidin-3-amine] | ≤ 0.1 µM
5 | CC(C)c1csc(CN[C@H]2CN(S(=O)(=O)c3cn(C)cn3)C[C@@H]2c2ccccc2)n1 [Example 556, (3R,4S)-1-[(1-methyl-1H-imidazol-4-yl)sulfonyl]-4-phenyl-N-{[4-(propan-2-yl)-1,3-thiazol-2-yl]methyl}pyrrolidin-3-amine] | ≤ 10 µM
6 | Cn1cnc(S(=O)(=O)N2C[C@H](Nc3ccc4sccc4c3)[C@@H](c3ccccc3)C2)c1 [Example 654, (3R,4S)-N-(1-benzothiophen-5-yl)-1-[(1-methyl-1H-imidazol-4-yl)sulfonyl]-4-phenylpyrrolidin-3-amine] | ≤ 1 µM
7 | Cn1cnc(S(=O)(=O)N2C[C@H](Nc3ccc(F)c(-c4cncnc4)c3)[C@@H](c3ccc(F)cc3)C2)c1 [Example 749, (3R,4S)-4-(4-fluorophenyl)-N-[4-fluoro-3-(pyrimidin-5-yl)phenyl]-1-[(1-methyl-1H-imidazol-4-yl)sulfonyl]pyrrolidin-3-amine] | ≤ 0.01 µM
8 | Cn1cnc(S(=O)(=O)N2C[C@H](NCc3ccc(C4CCCCO4)s3)[C@@H](c3ccccc3)C2)c1 (stereo partly drawn) [Example 558, (3R,4S)-1-[(1-methyl-1H-imidazol-4-yl)sulfonyl]-4-phenyl-N-{[5-(tetrahydro-2H-pyran-2-yl)thiophen-2-yl]methyl}pyrrolidin-3-amine] | ≤ 10 µM
9 | COc1ccc(N[C@@H]2CN(S(=O)(=O)c3cn(C)cn3)C[C@H]2c2ccccc2)cc1 (relative stereo) [Example 50, trans-N-(4-methoxyphenyl)-1-[(1-methyl-1H-imidazol-4-yl)sulfonyl]-4-phenylpyrrolidin-3-amine] | ≤ 10 µM
10 | COC[C@H](C)NC[C@@H]1CN(S(=O)(=O)c2cn(C)cn2)C[C@H]1c1ccc(F)cc1 (mixture of isomers) [Example 596, (2S)-N-({trans-4-(4-fluorophenyl)-1-[(1-methyl-1H-imidazol-4-yl)sulfonyl]pyrrolidin-3-yl}methyl)-1-methoxypropan-2-amine] | ≤ 10 µM
11 | Cn1cnc(S(=O)(=O)N2C[C@@H](Nc3cc(C(F)(F)F)ccn3)[C@H](C3CCCCO3)C2)c1 (relative stereo) [Example 682, N-{Trans-1-[(1-methyl-1H-imidazol-4-yl)sulfonyl]-4-[tetrahydro-2H-pyran-2-yl]pyrrolidin-3-yl}-4-(trifluoromethyl)pyridin-2-amine] | ≤ 0.1 µM
12 | Cn1cnc(S(=O)(=O)N2C[C@@H](CNc3cc(Cl)cc(Cl)c3)[C@H](c3ccc(F)cc3)C2)c1 (relative stereo) [Example 292, 3,5-dichloro-N-({trans-4-(4-fluorophenyl)-1-[(1-methyl-1H-imidazol-4-yl)sulfonyl]pyrrolidin-3-yl}methyl)aniline] | ≤ 1 µM
13 | Cn1cnc(S(=O)(=O)N2C[C@H](NC(=O)CCCC(C)(F)F)[C@@H](c3ccc(F)cc3)C2)c1 [Example 735, 5,5-difluoro-N-{(3R,4S)-4-(4-fluorophenyl)-1-[(1-methyl-1H-imidazol-4-yl)sulfonyl]pyrrolidin-3-yl}hexanamide] | ≤ 10 µM
14 | Cc1ccc(C#N)cc1N[C@@H]1CN(S(=O)(=O)c2cn(C)cn2)C[C@H]1c1ccccc1 (relative stereo) [Example 82, 4-methyl-3-({trans-1-[(1-methyl-1H-imidazol-4-yl)sulfonyl]-4-phenylpyrrolidin-3-yl}amino)benzonitrile] | ≤ 10 µM
15 | Cn1cnc(S(=O)(=O)N2C[C@@H](C(=O)c3ccc(F)c(F)c3)[C@H](c3ccc(F)cc3)C2)c1 (relative stereo) [Example 357, (3,4-Difluorophenyl){trans-4-(4-fluorophenyl)-1-[(1-methyl-1H-imidazol-4-yl)sulfonyl]pyrrolidin-3-yl}methanone] | ≤ 1 µM
16 | Cn1cnc(S(=O)(=O)N2C[C@@H](Nc3cccc(Cl)c3)[C@H](c3ccccn3)C2)c1 (relative stereo) [Example 345, Trans-N-(3-chlorophenyl)-1-[(1-methyl-1H-imidazol-4-yl)sulfonyl]-4-(pyridin-2-yl)pyrrolidin-3-amine] | ≤ 0.1 µM
17 | O=S(=O)(c1ccc2c(c1)OCCO2)N1CC(Nc2ccc(F)c(F)c2)C(c2ccccc2)C1 (stereo not shown) [Example 496, N-(3,4-difluorophenyl)-1-(2,3-dihydro-1,4-benzodioxin-6-ylsulfonyl)-4-phenylpyrrolidin-3-amine] | ≥ 10 µM
18 | Cn1cnc(S(=O)(=O)N2C[C@@H](Nc3ccccc3C(F)(F)F)[C@H](c3ccc(F)cc3)C2)c1 (relative stereo) [Example 87, trans-4-(4-fluorophenyl)-1-[(1-methyl-1H-imidazol-4-yl)sulfonyl]-N-[2-(trifluoromethyl)phenyl]pyrrolidin-3-amine] | ≤ 10 µM
19 | CC1=C(CCN[C@H]2CN(S(=O)(=O)c3cn(C)cn3)C[C@@H]2c2ccccc2)C(C)(C)CCC1 [Example 458, (3R,4S)-1-[(1-methyl-1H-imidazol-4-yl)sulfonyl]-4-phenyl-N-[2-(2,6,6-trimethylcyclohex-1-en-1-yl)ethyl]pyrrolidin-3-amine] | ≤ 10 µM
20 | Cn1cnc(S(=O)(=O)N2C[C@@H](NC(=O)c3cccc(C(F)(F)F)c3Cl)[C@H](c3ccccc3F)C2)c1 (relative stereo) [Example 54, 2-chloro-N-{trans-4-(2-fluorophenyl)-1-[(1-methyl-1H-imidazol-4-yl)sulfonyl]pyrrolidin-3-yl}-3-(trifluoromethyl)benzamide] | ≤ 1 µM
21 | Cn1cnc(S(=O)(=O)N2C[C@@H](NCc3ccc(Cl)cc3Cl)[C@H](c3ccccc3F)C2)c1 (relative stereo) [Example 282, trans-N-(2,4-dichlorobenzyl)-4-(2-fluorophenyl)-1-[(1-methyl-1H-imidazol-4-yl)sulfonyl]pyrrolidin-3-amine] | ≤ 0.1 µM
22 | Cn1cnc(S(=O)(=O)N2C[C@H](NCc3ccc(Cl)s3)[C@@H](c3ccc(F)cc3)C2)c1 [Example 393, (3R,4S)-N-[(5-chlorothiophen-2-yl)methyl]-4-(4-fluorophenyl)-1-[(1-methyl-1H-imidazol-4-yl)sulfonyl]pyrrolidin-3-amine] | ≤ 0.01 µM
23 | Cn1cnc(S(=O)(=O)N2C[C@@H](NC(=O)c3ccccc3C(F)(F)F)[C@H](c3ccccc3)C2)c1 (relative stereo) [Example 35, N-{trans-1-[(1-methyl-1H-imidazol-4-yl)sulfonyl]-4-phenylpyrrolidin-3-yl}-2-(trifluoromethyl)benzamide] | ≤ 10 µM
24 | Cn1cnc(S(=O)(=O)N2C[C@H](NCc3cccc4ccnn34)[C@@H](c3ccccc3)C2)c1 [Example 555, (3R,4S)-1-[(1-methyl-1H-imidazol-4-yl)sulfonyl]-4-phenyl-N-(pyrazolo[1,5-a]pyridin-7-ylmethyl)pyrrolidin-3-amine] | ≤ 10 µM
25 | Cn1cnc(S(=O)(=O)N2C[C@@H](NC(=O)c3cccc(Cl)c3)[C@H](c3ccccc3)C2)c1 (relative stereo) [Example 15, 3-chloro-N-{trans-1-[(1-methyl-1H-imidazol-4-yl)sulfonyl]-4-phenylpyrrolidin-3-yl}benzamide] | ≤ 10 µM
26 | Cn1cnc(S(=O)(=O)N2C[C@H](Nc3cccc(OCC(F)(F)F)c3)[C@@H](c3ccc(F)cc3)C2)c1 [Example 744, (3R,4S)-4-(4-fluorophenyl)-1-[(1-methyl-1H-imidazol-4-yl)sulfonyl]-N-[3-(2,2,2-trifluoroethoxy)phenyl]pyrrolidin-3-amine] | ≤ 0.01 µM
27 | CCCNC(=O)CO[C@@H]1CN(S(=O)(=O)c2cn(C)cn2)C[C@H]1c1ccc(F)cc1 (relative stereo) [Example 689, 2-({Trans-4-(4-fluorophenyl)-1-[(1-methyl-1H-imidazol-4-yl)sulfonyl]pyrrolidin-3-yl}oxy)-N-propylacetamide] | ≤ 1 µM
28 | Cn1cnc(S(=O)(=O)N2C[C@@H](NC(=O)c3ccc(F)cc3)[C@H](c3ccccc3)C2)c1 (relative stereo) [Example 19, 4-fluoro-N-{trans-1-[(1-methyl-1H-imidazol-4-yl)sulfonyl]-4-phenylpyrrolidin-3-yl}benzamide] | ≤ 10 µM
